Measured values from patent USRE37670E1, “Antiproliferative and neurotrophic molecules” (American Biogenetics Inc., priority 1994, dated 2002).

How the values were obtained:
[1] = test system: mouse neuro-2a neuroblastoma cells; assay: Antiproliferative assay, cell counting after 48 h; format: cell-based
Experimental: Neuro-2a neuroblastoma cells were cultured in 25 cm^2 flasks for 48 hours in the presence of test medium. After 48 hours, cells were observed, photographed and harvested with trypsin for counting using a haemocytometer. Cell number is expressed as percentage mean±SEM (n=3) of control values.
Accordingly, representative cells may be cultured in vitro in the presence of varying concentration of test compound. At an appropriate time, the cells under the different conditions are examined for the appropriate parameter (for example, cell number for antimitotic activity; neurite outgrowth for neurotrophic activity) and the ED50 may be determined.
Antiproliferative and neuroprotective actions should be sufficient to achieve the desired inhibition of mitosis or neuroprotection without serious hetaptotoxic side effects. […] Dose response curves may be determined first in vitro in a relevant animal model to determine ranges of expected therapeutic concentrations in humans. […] Other cell lines, including those of human origin may be used to assesses activity as well.
The mouse neuro-2a neuroblastoma cell line (Klebe and Ruddle, 1969 J. Cell Biol., 43:69A) was cultured in Dulbecco's modified Eagle's medium (DMEM; Flow Laboratories) supplemented with 10% fetal bovine serum (Tissue Culture Services), […] glutamine and 100 μg/ml of gentamicin or 100 units/ml and 100 μg/ml of penicillin/streptomycin antibiotics (Sigma Chemicals). The cells were maintained in a water-humidified atmosphere of 9% CO2at 37° C. Cells were passaged using 0.025% trypsin (Gibco) in DMEM, and were seeded at a density of 1×10^4 cells/cm^2.
Neuro-2a cells were seeded in 25cm^2 flasks (Costar) at a density of 1×10^4 cells/cm^2. Following a recovery period of 24 h, the agent to be examined was added to the cells in a vehicle of dimethyl sulphoxide (DMSO), the volume of which was 0.2% of the total volume of medium bathing the cells. A flask containing the DMSO vehicle alone was employed as control. Following incubation for 48h, cells were examined using an inverted phase contrast microscope (Leitz Diavert) and photographed (Ilford 50ASA film). Cells were then harvested by trypsinization and were counted using a haemocytometer (improved Neubauer model).

Teratogenic activity = conditions: in vivo
Source text: Nau, H. et al., Pharmacol. & Toxicol. (1991) 69:310-321.

[2] = test system: neuro-2a neuroblastoma cells; assay: Neurite outgrowth / differentiation, scanning electron microscopy; format: cell-based, mouse; conditions: for neurite outgrowth: 48 hours
Experimental: Neuroblastoma cells were cultured in the presence of 2-n-butyl-4-pentynoic acid (1.0 mM, 2 mM); and 2-n-pentyl-pentynoic acid (0.3 mM, 0.5 mM). Test medium was added to cells after 24 hours in culture and maintained as a test medium for 48 hours after which they were fixed in 2.5% glutaraldehyde and […] sodium phosphate buffer overnight at 4° C. Cells were postfixed with osmium tetroxide and prepared for scanning microscopy as described.
The neurotrophic activity associated with valproate and its analogues may be determined based on in vitro indices of differentiation, including inhibition of mitosis, increase in neurite outgrowth, and NCAM expression. For example, the ability to promote neurite outgrowth is correlated with enhanced survival of certain cultured neural cells including embryonic sensory and sympathetic neurons. Proliferating immature neuroblasts, in vitro, have a rounded shape and are loosely adherent to culture surfaces. In the presence of a neurotrophic factor, these cells become more adherent and sprout processes known in the art as neurites. Accordingly, in vitro neurite outgrowth may be used as an assay for determining concentrations of compound in contact with target cells which would be expected to achieve desirable neuroprotecting effects.
Cells which were to be examined by scanning electron microscopy were grown as previously described in 25cm^2 flasks. Following 48 h exposure to the agent, cells were fixed in a solution of 2.5% glutaraldehyde in 0.1M sodium phosphate buffer, pH 7.4, overnight at 4° C. The cells were post-fixed subsequently in phosphate-buffered 1% osmium tetroxide for 1 h at room temperature, washed and were dehydrated gradually for 1 hour using a series of ethanol concentrations stepwise from 20, 40, 60, 80 to a final concentration 100%.
Sections of the base of the tissue culture flask were removed and were critical point dried to minimize shrinkage and cracking. This was achieved by placing the samples in a Polaron critical point dryer and purging the chamber several times with CO2 to remove all traces of ethanol. After 1 h the temperature and pressure were increased to 40° C. and 1200 lbs/in^2, respectively, at which stage the critical point for carbon dioxide had been reached and drying was completed.
Specimens were subsequently removed from the chamber, mounted on stubs suitable for scanning electron microscopy using conductive carbon cement (Neubauer) and were sputter coated with gold under vacuum (5×10^−2 torr) in the presence of argon gas at a current of 20 mA for 3 minutes (Polaron E5100). Following gold-coating, samples were examined in the scanning electron microscope (JEOL 35C) at an accelerating voltage of 15 kV.

[3] = test system: Neural Cell Adhesion Molecule (NCAM) in neuro-2a neuroblastoma cells; assay: NCAM immunofluorescence microscopy; format: cell-based, mouse; conditions: 1.0 mm; compared to control cells
Experimental: FIGS. 3A-1, 3A-2 and 3B: Neural Cell Adhesion Molecule (NCAM) immunofluorescence in neuro-2a neuroblastoma cells. […] Panel B. Neuroblastoma cells were cultured for 48 hours in the presence of increasing concentrations of 2-n-butyl-4-pentynoic acid and 2-n-pentyl-4-pentynoic acid. They were then fixed and prepared for staining with rabbit anti-NCAM antibody. A second anti-rabbit antibody conjugated to rhodamine was incubated with the cells to detect bound anti-NCAM antibody. […] Immunofluorescence is expressed as mean +/− SEM.
Cells were seeded in 24-well plates at a density of 1×10^4 cells/cm^2. Following a recovery period 24 h they were exposed for an additional 48 h to the drug under investigation. […] The cells were again washed three times with phosphate buffered saline pH 7.4 and were then mounted using Citifluor (Agar Scientific) containing a fluorescence enhancer. Fluorescence of rhodamine was visualized using an excitatory wavelength of 535 nm (Leica filter block N2.1) on a Leitz DMRB fluorescence microscope. Fluorescence intensity was examined at points of cell-cell contact using a Quantimet 500 Image Analysis System. Fluorescence intensity is expressed as grey level at points of cell contact relative to that observed in the control.

[4] = literature; cited from earlier work
[5] = experimental models; literature; cited from earlier work
[6] = test system: neural derived cell proliferation; conditions: literature; cited from earlier work
[7] = human; literature; cited from earlier work

For `C#CCC(CC(C)C)C(=O)O` (stereo not drawn), the “antiproliferative potency / activity” value [1] was “low”, the teratogenic potency (Teratogenic activity) was “low” and the prodifferentiative potency [2] was “low”.
For `C#CCC(CCCCCC)C(=O)O` (racemic) [2-n-hexyl-4-pentynoic acid, (±)-2-(2-propinyl)-Octanoic acid], the teratogenic potency (Teratogenic activity) was “most potent”.
For `C#CCC(CCCC)C(=O)O` (stereo not drawn) [2-n-butyl-4-pentynoic acid], the teratogenic potency (Teratogenic activity) was “most potent” and the neurite outgrowth ([2]; 1.0 mM, 2 mM) was “Induction of neurite outgrowth”.
With `C#CCC(CCCCC)C(=O)O` (stereo not drawn) [2-n-pentyl-4-pentynoic acid] the teratogenic potency (Teratogenic activity) was “most potent”, the neurite outgrowth ([2]; 0.3 mM, 0.5 mM) was “Induction of neurite outgrowth” and the “immunofluorescence directed against NCAM” value [3] was “increased immunofluorescence”.
For `C#CCC(CCC)C(=O)O` (stereo not drawn) [2-n-propyl-4-pentynoic acid], the “teratogenic potency of S-enantiomer relative to R-enantiomer” value [4] is listed as “more potent” and the teratogenic potency (Teratogenic activity) is listed as “most potent”.
In the case of `C=CCC(CCC)C(=O)O` (stereo not drawn) [Example 4-en-VPA, 2-n-propyl-4-pentenoic acid], the “teratogenic potency of S-enantiomer relative to R-enantiomer” value [4] is listed as “more potent”.
For `CC/C=C(\CCC)C(=O)O` [IV], the teratogenic activities [4] is listed as “very low or undetectable”, the “antiproliferative potency / activity” value [1] is listed as “lowers, but does not abolish” and the cellular neurotrophic activity [2] is listed as “lowers, but does not abolish”. For the same compound, the anticonvulsant properties [5] was “good”.
For `C#CC[C@H](CCC)C(=O)O` [S-2-n-propyl-4-pentynoic acid], the “teratogenic potency of S-enantiomer relative to R-enantiomer” value [4] is listed as “significantly greater”.
For `CC#CCC(CCC)C(=O)O` (stereo not drawn) [VI], the teratogenic activities [4] is listed as “very low or undetectable”, the “antiproliferative potency / activity” value [1] is listed as “lowers, but does not abolish” and the cellular neurotrophic activity [2] is listed as “lowers, but does not abolish”. The anticonvulsant properties [5] was “good”.
For `C/C=C\CC(CCC)C(=O)O` (stereo not drawn) [V], the “antiproliferative potency / activity” value [1] was “lowers, but does not abolish” and the cellular neurotrophic activity [2] was “lowers, but does not abolish”.
In the case of `CCCC(CCC)C(=O)O` [valproate, valproic acid], the antiproliferative action [6] is given as “potently inhibit” and the “transfer into the central nervous system” value [7] is given as “very limited”.
In the case of `CCCC(CCC)C(N)=O` [valpromide], the teratogenic activities [4] is listed as “non-teratogenic” and the antiproliferative action [6] is listed as “not antiproliferative”.
